Measurements as given in US11505560B2, “Heterobifunctional compounds with improved specificity” (DANA-FARBER CANCER INSTITUTE, INC., priority 2017, dated 2022).

Columns and labels:
[1] = molecular target: T1, IKZF1Δ-EGFP fusion protein (Homo sapiens, UniProt Q13422+Q96SW2, DEL197-239); assay: IKZF1Δ-EGFP fusion protein degradation reporter assay (flow cytometry); type: cell-based; settings: HEK293T cells
T1 construct: expressed in transfected cells; HEK293T cells
Description: IKZF1A, BRD2BD1, BRD2BD2, BRD3BD1, BRD3BD2, BRD4BD1, and BRD4BD2 were subcloned into mammalian pcDNA5/FRT Vector (Ampicillin and Hygromycin B resistant) modified to contain MCS-eGFP-P2A-mCherry. […] Following 2-3 passage cycle FACS (FACSAria II, BD) was used to enrich for cells expressing eGFP and mCherry.
Signal from 5000 cells per well was acquired in singlicate or duplicate and the eGFP and mCherry florescence monitored. Data was analyzed using FlowJo (FlowJo, LCC). […] The eGFP protein abundance relative to mCherry was then quantified as a ten-fold amplified ratio for each individual cell using the formula: 10×eGFP/mCherry. The median of the ratio was then calculated per set, normalized to the median of the DMSO ratio, and is denoted as relative abundance. Standard deviation is calculated from four replicates (n=4) unless described otherwise.

[2] = system: IKZF1, IKZF3 and ZFP91 in MM.1s cells; assay: Quantitative proteomics (TMT LC-MS3) in MM.1s cells; type: cell-based, human; settings: 1 μM, five hours
Description: A micro-BCA assay (Pierce) was used to determine the final protein concentration in the cell lysate. […] Proteins were precipitated using methanol/chloroform. In brief, four volumes of methanol were added to the cell lysate, followed by one volume of chloroform, and finally three volumes of water.

[3] = molecular target: T2, IKZF1Δ-CRBN complex formation (Homo sapiens, UniProt Q13422+Q96SW2, DEL197-239); assay: CRBN-IKZF1Δ binding assay (TR-FRET); settings: IKZF1Δ and DDB1ΔB-CRBN
T2 construct: made in house; host or cells: Trichoplusia ni High-Five insect cells (baculovirus)
Description: Compounds in CRBN mutants dimerization assay were dispensed as described above into 200 nM His6-DDB1-His6-CRBNmutants or 200 nM His6-DDB1ΔB-His6-CRBNWT, 100 nM BRD4BD1-BODIPY-SpyCatcher and 2 nM terbium-anti-HIS Ab (Invitrogen) in a buffer containing 50 mM Tris pH 7.5, 100 mM NaCl, 0.1% Pluronic F-68 solution (Sigma) and 2% DMSO (4% DMSO final). Before TR-FRET measurements were conducted, the reactions were incubated for 15 min at RT. […] The TR-FRET signal of each data point was extracted by calculating the 520/490 nm ratio. […] The peak height of TR-FRET dBET dose response data was calculated in GraphPad Prism 7 using Area Under Curve analysis for three independent replicates (n=3) and the mean peak height and standard deviation calculated.
The standard deviation in IKZF1A TR-FRET compound titrations was calculated from three biological replicates (n=3) as an average of 5 technical replicates per well per experiment, or as an average of 5 technical replicates of single experiment for unlabelled protein titrations.

T2 sequence (Q96SW2 whole entry, stated change not applied): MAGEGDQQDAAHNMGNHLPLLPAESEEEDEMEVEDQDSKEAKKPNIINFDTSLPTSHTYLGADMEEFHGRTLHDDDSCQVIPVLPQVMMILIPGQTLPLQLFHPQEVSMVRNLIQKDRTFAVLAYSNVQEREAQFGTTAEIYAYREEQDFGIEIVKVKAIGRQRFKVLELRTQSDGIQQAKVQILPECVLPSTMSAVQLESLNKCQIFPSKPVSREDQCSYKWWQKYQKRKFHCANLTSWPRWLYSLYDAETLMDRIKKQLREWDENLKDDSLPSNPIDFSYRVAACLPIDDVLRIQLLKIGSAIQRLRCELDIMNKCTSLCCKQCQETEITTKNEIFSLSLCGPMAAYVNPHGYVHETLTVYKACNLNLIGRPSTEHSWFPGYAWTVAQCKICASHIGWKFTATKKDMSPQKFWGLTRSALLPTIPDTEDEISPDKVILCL
T2 sequence (Q13422 with tags, fused parts or gaps DEL197-239 limits assumed): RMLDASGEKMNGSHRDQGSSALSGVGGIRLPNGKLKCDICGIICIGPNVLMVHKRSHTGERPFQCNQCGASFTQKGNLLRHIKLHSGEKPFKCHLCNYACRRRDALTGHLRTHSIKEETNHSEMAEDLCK
T1 sequence (Q13422 with tags, fused parts or gaps DEL197-239 limits assumed): as above
T1 sequence (Q96SW2 whole entry, stated change not applied, the tested form may be a part): as the sequence (Q96SW2 whole entry, stated change not applied) above
T1 sequence (Q16531 whole entry partner, the tested form may be a part): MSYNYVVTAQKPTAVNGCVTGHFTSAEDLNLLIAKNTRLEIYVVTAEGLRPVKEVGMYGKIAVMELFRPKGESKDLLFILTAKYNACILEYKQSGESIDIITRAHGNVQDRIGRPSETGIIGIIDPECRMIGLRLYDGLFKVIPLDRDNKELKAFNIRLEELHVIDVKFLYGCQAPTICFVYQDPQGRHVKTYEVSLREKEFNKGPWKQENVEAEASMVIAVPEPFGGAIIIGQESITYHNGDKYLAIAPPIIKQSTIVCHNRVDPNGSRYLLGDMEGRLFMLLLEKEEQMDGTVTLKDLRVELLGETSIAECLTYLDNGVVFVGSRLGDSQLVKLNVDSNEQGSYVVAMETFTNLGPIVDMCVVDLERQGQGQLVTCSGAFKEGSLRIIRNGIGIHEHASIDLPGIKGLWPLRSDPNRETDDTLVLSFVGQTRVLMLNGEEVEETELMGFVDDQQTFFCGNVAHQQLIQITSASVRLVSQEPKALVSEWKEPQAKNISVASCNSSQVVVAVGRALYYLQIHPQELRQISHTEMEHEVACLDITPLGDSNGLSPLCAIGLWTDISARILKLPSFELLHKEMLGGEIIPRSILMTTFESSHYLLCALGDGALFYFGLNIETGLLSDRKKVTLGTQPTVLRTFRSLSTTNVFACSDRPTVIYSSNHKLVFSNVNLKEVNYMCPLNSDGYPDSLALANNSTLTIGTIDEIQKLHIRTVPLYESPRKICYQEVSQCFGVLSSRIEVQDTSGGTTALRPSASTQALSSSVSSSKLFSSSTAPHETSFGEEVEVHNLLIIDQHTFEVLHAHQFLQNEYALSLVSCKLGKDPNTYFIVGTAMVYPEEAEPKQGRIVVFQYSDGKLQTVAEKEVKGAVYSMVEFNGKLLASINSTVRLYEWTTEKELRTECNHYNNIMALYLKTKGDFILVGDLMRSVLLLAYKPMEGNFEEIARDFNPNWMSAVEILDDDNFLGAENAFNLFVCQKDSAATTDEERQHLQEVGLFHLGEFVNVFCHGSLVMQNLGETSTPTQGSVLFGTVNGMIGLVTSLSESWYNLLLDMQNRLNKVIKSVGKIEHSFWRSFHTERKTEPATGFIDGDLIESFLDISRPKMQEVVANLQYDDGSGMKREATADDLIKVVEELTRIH

- cellular IKZF1 degradation (in words) [1]: equipotent to lenalidomide
- induction of IKZF1-CRBN complex formation / IKZF1 binding (in words) [3]: pronounced complex formation
SMILES: COC(=O)C[C@@H]1N=C(c2ccc(Cl)cc2)c2c(sc(C(=O)NCCCCCCCCNc3cccc4c3C(=O)N(C3CCC(=O)NC3=O)C4=O)c2C)-n2c(C)nnc21 (stereo partly drawn) [dBET70, reference compound]
- co-degradation of CRBN-lenalidomide neo-substrates IKZF1, IKZF3 and ZFP91 [2]: pronounced co-degradation of CRBN-lenalidomide neo-substrates IKZF1, IKZF3 and ZFP91
